Literature values, collected in patent US8697141B2, “Method and composition for preventing and healing osteonecrosis of the jaw” (Micropure, Inc., priority 2008, dated 2014).
Read-outs that look alike come from different tables or passages of the source. One block for each compound: values may come before it.

Experiments:
ONJ [1] = conditions: oral users, 208 patients
osteoblasts [2] = conditions: dose and time dependent
fibroblasts = conditions: dose and time dependent
endothelial cells = conditions: dose and time dependent
osteoblasts [3] = conditions: chlorhexidine at 0.12%
[4] = test system: human gingival fibroblasts; conditions: chlorhexidine at 0.12%
ONJ [5] = conditions: 0.12% chlorhexidine; out of 24 patients
[6] = test system: human osteoblast-like cells; conditions: high concentrations over a prolonged time interval
[7] = test system: periodontal ligament cells; conditions: chlorhexidine at 0.12%
C. albicans = conditions: time and dose dependent
[8] = test system: human gingival fibroblasts; conditions: 0.05 mM
bone vascularity = conditions: rats
[9] = test system: capillary neoangiogenesis
[10] = test system: human gingival fibroblasts; conditions: low concentrations
keratinocytes = conditions: low concentrations
S. mutans = conditions: 200 ppm, within 10 seconds of application
DUWL biofilms = conditions: after 5 days of treatment
Bacteroides gingivalis = conditions: 200 ppm, at several time points and different pH
bacteria = conditions: exposures as short as 10 seconds
[11] = in vivo

ONJ prevalence rate (ONJ [1]): 4%
Compound: NCCCC(O)(P(=O)(O)O)P(=O)(O)O [alendronate]

Compound: N=C(NCCCCCCNC(=N)NC(=N)Nc1ccc(Cl)cc1)NC(=N)Nc1ccc(Cl)cc1.O=C(O)[C@H](O)[C@@H](O)[C@H](O)[C@H](O)CO.O=C(O)[C@H](O)[C@@H](O)[C@H](O)[C@H](O)CO [chlorhexidine digluconate]
apoptosis and necrosis (osteoblasts [2]): induced apoptosis and led to necrosis
apoptosis and necrosis (fibroblasts): induced apoptosis and led to necrosis
apoptosis and necrosis (endothelial cells): induced apoptosis and led to necrosis

LDH release compared with controls (osteoblasts [3]): elevated and significant LDH release
LDH release compared with controls [4]: elevated and significant LDH release
LDH release compared with controls [7]: elevated and significant LDH release
Compound: [H]/N=C(\N/C(=N/[H])NCCCCCCNC(=N)NC(=N)Nc1ccc(Cl)cc1)Nc1ccc(Cl)cc1 [chlorhexidine]
patients with ONJ progression (ONJ [5]): 13 patients
patients with ONJ resolution (ONJ [5]): 3 patients
patients with no change in ONJ status (ONJ [5]): 8 patients
cell survival [6]: adverse effect on the survival

Compound: [O][Cl+][O-] [chlorine dioxide]
potassium leakage (C. albicans): marked increase
induction of apoptosis ([8]; 0.1 mM and 0.5 mM ClO2): not to induce apoptosis significantly

Compound: OO [hydrogen peroxide]
induction of apoptosis ([8]; 1.0 mM): induced apoptosis at all concentrations tested

Compound: NCCC(O)(P(=O)(O)O)P(=O)(O)O [pamidronate]
bone vascularity (bone vascularity): reduce bone vascularity
new formation of capillaries from blood vessels [9]: inhibit the new formation of capillaries from blood vessels

Compound: O=P(O)(O)C(O)(Cn1ccnc1)P(=O)(O)O [zoledronic acid]
apoptosis of oral mucosal cells [10]: gene-regulated induced apoptosis
apoptosis of oral mucosal cells (keratinocytes): gene-regulated induced apoptosis

Compound: stabilized chlorine dioxide
LDH release compared with controls (osteoblasts [3]): did not increase the release of LDH
in vitro kill rate (S. mutans): 99%
LDH release compared with controls [4]: did not increase the release of LDH
heterotrophic plate count (HPC) value (DUWL biofilms): 0
in vitro kill (Bacteroides gingivalis): 100%
reduction in bacteria (bacteria): dramatic reduction in bacteria
VSCs in expired mouth air [11]: remarkable decrease in VSCs
LDH release compared with controls [7]: did not increase the release of LDH
